Measured values taken from ChEMBL document CHEMBL1141832, “A new discorhabdin from two sponge genera” (1999).
Values after ≈ are worked out from the molar mass of the structure shown.

Experiment: Antitumor activity against human NCI60 cells
Assay type: functional

Question: Which GI50 does the source give for `O=C1C=C2S[C@H]3C[C@]2(C=C1Br)C1=C(N3)C(=O)c2[nH]cc3ccnc1c23` [DISCORHABDIN Q] here?
Answer: 0.5 µg/mL (≈ 1.21 µM)
